Measurements as given in ChEMBL document CHEMBL4507305, “Data for DCP probe TP-024” (2021).

What was measured:
[1] = molecular target: Muscle, skeletal receptor tyrosine-protein kinase (Homo sapiens) (UniProt O15146); settings: Compound concentration 1000.0 nM
[2] = molecular target: Angiopoietin-1 receptor (Homo sapiens) (UniProt Q02763); settings: Compound concentration 1000.0 nM
[3] = molecular target: Calcium/calmodulin-dependent protein kinase type II subunit beta (Homo sapiens) (UniProt Q13554); settings: Compound concentration 1000.0 nM
[4] = molecular target: Serine/threonine-protein kinase DCLK2 (Homo sapiens) (UniProt Q8N568); settings: Compound concentration 1000.0 nM
[5] = molecular target: Beta-3 adrenergic receptor (Homo sapiens) (UniProt P13945); settings: Compound concentration 10.0 uM
[6] = molecular target: Phosphatidylinositol 4,5-bisphosphate 3-kinase catalytic subunit gamma isoform (Homo sapiens) (UniProt P48736); settings: Compound concentration 1000.0 nM
[7] = molecular target: SRSF protein kinase 1 (Homo sapiens) (UniProt Q96SB4); settings: Compound concentration 1000.0 nM
[8] = molecular target: NT-3 growth factor receptor (Homo sapiens) (UniProt Q16288); settings: Compound concentration 1000.0 nM
[9] = tested on: Receptor-type tyrosine-protein kinase FLT3 (Homo sapiens), P36888 [UNDEFINED MUTATION]; settings: Compound concentration 1000.0 nM
[10] = tested on: Phosphatidylinositol 4,5-bisphosphate 3-kinase catalytic subunit alpha isoform (Homo sapiens), P42336 [M1043I]; settings: Compound concentration 1000.0 nM
[11] = molecular target: Dual specificity mitogen-activated protein kinase kinase 6 (Homo sapiens) (UniProt P52564); settings: Compound concentration 1000.0 nM
[12] = tested on: Epidermal growth factor receptor (Homo sapiens), P00533 [UNDEFINED MUTATION]; settings: Compound concentration 1000.0 nM
[13] = molecular target: Serine/threonine-protein kinase MARK1 (Homo sapiens) (UniProt Q9P0L2); settings: Compound concentration 1000.0 nM
[14] = molecular target: Focal adhesion kinase 1 (Homo sapiens) (UniProt Q05397); settings: Compound concentration 1000.0 nM
[15] = molecular target: Tyrosine-protein kinase BTK (Homo sapiens) (UniProt Q06187); settings: Compound concentration 1000.0 nM
[16] = molecular target: Serine/threonine-protein kinase Sgk1 (Homo sapiens) (UniProt O00141); settings: Compound concentration 1000.0 nM
[17] = molecular target: Serine/threonine-protein kinase SIK3 (Homo sapiens) (UniProt Q9Y2K2); settings: Compound concentration 1000.0 nM
[18] = molecular target: Alpha-1D adrenergic receptor (Homo sapiens) (UniProt P25100); settings: Compound concentration 10.0 uM
[19] = molecular target: Protein kinase C epsilon type (Homo sapiens) (UniProt Q02156); settings: Compound concentration 1000.0 nM
[20] = molecular target: Fibroblast growth factor receptor 1 (Homo sapiens) (UniProt P11362); settings: Compound concentration 1000.0 nM
[21] = molecular target: Serine/threonine-protein kinase PAK 3 (Homo sapiens) (UniProt O75914); settings: Compound concentration 1000.0 nM
[22] = molecular target: Serine/threonine-protein kinase SBK1 (Homo sapiens) (UniProt Q52WX2); settings: Compound concentration 1000.0 nM
[23] = molecular target: Dual specificity mitogen-activated protein kinase kinase 5 (Homo sapiens) (UniProt Q13163); settings: Compound concentration 1000.0 nM
[24] = molecular target: Myosin-IIIb (Homo sapiens) (UniProt Q8WXR4); settings: Compound concentration 1000.0 nM
[25] = molecular target: Mitogen-activated protein kinase 9 (Homo sapiens) (UniProt P45984); settings: Compound concentration 1000.0 nM
[26] = molecular target: Serine/threonine-protein kinase Nek9 (Homo sapiens) (UniProt Q8TD19); settings: Compound concentration 1000.0 nM
[27] = molecular target: BMP-2-inducible protein kinase (Homo sapiens) (UniProt Q9NSY1); settings: Compound concentration 1000.0 nM
[28] = molecular target: Inhibitor of nuclear factor kappa-B kinase subunit beta (Homo sapiens) (UniProt O14920); settings: Compound concentration 1000.0 nM
[29] = molecular target: Ephrin type-A receptor 3 (Homo sapiens) (UniProt P29320); settings: Compound concentration 1000.0 nM
[30] = molecular target: Mitogen-activated protein kinase kinase kinase 11 (Homo sapiens) (UniProt Q16584); settings: Compound concentration 1000.0 nM
[31] = molecular target: Serine/threonine-protein kinase 38 (Homo sapiens) (UniProt Q15208); settings: Compound concentration 1000.0 nM
[32] = molecular target: Activin receptor type-1B (Homo sapiens) (UniProt P36896); settings: Compound concentration 1000.0 nM
[33] = molecular target: Mitogen-activated protein kinase kinase kinase 2 (Homo sapiens) (UniProt Q9Y2U5); settings: Compound concentration 1000.0 nM
[34] = molecular target: 5-hydroxytryptamine receptor 3A (Homo sapiens) (UniProt P46098); settings: Compound concentration 10.0 uM
[35] = molecular target: High affinity nerve growth factor receptor (Homo sapiens) (UniProt P04629); settings: Compound concentration 1000.0 nM
[36] = molecular target: MAP kinase-activated protein kinase 2 (Homo sapiens) (UniProt P49137); settings: Compound concentration 1000.0 nM
[37] = molecular target: Serine/threonine-protein kinase 36 (Homo sapiens) (UniProt Q9NRP7); settings: Compound concentration 1000.0 nM
[38] = molecular target: Serine/threonine-protein kinase Nek3 (Homo sapiens) (UniProt P51956); settings: Compound concentration 1000.0 nM
[39] = molecular target: Phosphatidylinositol 4,5-bisphosphate 3-kinase catalytic subunit alpha isoform (Homo sapiens) (UniProt P42336); settings: Compound concentration 1000.0 nM
[40] = molecular target: Ephrin type-A receptor 5 (Homo sapiens) (UniProt P54756); settings: Compound concentration 1000.0 nM
[41] = molecular target: Receptor-interacting serine/threonine-protein kinase 4 (Homo sapiens) (UniProt P57078); settings: Compound concentration 1000.0 nM
[42] = molecular target: Testis-specific serine/threonine-protein kinase 1 (Homo sapiens) (UniProt Q9BXA7); settings: Compound concentration 1000.0 nM
[43] = molecular target: Serine/threonine-protein kinase 33 (Homo sapiens) (UniProt Q9BYT3); settings: Compound concentration 1000.0 nM
[44] = molecular target: cGMP-dependent protein kinase 1 (Homo sapiens) (UniProt Q13976); settings: Compound concentration 1000.0 nM
[45] = molecular target: Non-receptor tyrosine-protein kinase TYK2 (Homo sapiens) (UniProt P29597); settings: Compound concentration 1000.0 nM

Chain of Testis-specific serine/threonine-protein kinase 1 (Homo sapiens) (Q9BXA7 whole entry): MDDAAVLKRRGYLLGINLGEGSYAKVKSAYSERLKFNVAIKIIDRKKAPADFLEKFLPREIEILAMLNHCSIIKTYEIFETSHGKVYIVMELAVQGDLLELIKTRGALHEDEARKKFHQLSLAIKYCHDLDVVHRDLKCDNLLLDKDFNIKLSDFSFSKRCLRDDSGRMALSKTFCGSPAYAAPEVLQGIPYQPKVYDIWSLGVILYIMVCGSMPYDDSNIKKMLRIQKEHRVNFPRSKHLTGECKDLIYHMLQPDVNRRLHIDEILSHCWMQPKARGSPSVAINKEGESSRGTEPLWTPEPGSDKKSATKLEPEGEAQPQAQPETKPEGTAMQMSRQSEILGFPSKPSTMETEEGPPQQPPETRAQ
Chain of Serine/threonine-protein kinase Nek9 (Homo sapiens) (Q8TD19 whole entry): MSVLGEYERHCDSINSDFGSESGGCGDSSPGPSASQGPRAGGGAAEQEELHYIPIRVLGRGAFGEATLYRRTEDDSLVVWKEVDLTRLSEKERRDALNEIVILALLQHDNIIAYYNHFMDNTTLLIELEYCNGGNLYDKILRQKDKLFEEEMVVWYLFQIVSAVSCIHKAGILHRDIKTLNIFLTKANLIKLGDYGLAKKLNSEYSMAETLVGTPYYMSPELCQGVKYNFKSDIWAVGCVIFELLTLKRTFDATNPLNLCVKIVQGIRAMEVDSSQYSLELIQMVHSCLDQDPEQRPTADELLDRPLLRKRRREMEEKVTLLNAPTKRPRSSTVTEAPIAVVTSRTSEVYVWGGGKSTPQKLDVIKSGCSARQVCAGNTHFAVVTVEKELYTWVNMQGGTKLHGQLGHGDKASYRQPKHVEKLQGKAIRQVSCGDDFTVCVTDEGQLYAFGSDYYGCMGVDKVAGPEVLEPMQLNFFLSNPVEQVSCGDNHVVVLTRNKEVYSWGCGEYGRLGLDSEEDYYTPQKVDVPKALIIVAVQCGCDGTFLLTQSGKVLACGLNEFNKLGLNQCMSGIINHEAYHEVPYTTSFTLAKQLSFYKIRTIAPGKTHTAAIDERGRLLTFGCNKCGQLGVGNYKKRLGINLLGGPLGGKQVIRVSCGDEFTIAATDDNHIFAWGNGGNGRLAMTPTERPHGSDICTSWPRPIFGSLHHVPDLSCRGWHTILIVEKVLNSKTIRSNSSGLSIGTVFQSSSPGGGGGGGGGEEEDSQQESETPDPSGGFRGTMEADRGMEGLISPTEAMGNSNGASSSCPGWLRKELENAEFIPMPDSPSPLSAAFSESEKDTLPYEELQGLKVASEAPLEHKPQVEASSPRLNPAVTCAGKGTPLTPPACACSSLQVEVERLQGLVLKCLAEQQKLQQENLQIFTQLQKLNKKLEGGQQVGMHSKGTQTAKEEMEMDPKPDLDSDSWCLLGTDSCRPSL
Chain of Serine/threonine-protein kinase 36 (Homo sapiens) (Q9NRP7 whole entry): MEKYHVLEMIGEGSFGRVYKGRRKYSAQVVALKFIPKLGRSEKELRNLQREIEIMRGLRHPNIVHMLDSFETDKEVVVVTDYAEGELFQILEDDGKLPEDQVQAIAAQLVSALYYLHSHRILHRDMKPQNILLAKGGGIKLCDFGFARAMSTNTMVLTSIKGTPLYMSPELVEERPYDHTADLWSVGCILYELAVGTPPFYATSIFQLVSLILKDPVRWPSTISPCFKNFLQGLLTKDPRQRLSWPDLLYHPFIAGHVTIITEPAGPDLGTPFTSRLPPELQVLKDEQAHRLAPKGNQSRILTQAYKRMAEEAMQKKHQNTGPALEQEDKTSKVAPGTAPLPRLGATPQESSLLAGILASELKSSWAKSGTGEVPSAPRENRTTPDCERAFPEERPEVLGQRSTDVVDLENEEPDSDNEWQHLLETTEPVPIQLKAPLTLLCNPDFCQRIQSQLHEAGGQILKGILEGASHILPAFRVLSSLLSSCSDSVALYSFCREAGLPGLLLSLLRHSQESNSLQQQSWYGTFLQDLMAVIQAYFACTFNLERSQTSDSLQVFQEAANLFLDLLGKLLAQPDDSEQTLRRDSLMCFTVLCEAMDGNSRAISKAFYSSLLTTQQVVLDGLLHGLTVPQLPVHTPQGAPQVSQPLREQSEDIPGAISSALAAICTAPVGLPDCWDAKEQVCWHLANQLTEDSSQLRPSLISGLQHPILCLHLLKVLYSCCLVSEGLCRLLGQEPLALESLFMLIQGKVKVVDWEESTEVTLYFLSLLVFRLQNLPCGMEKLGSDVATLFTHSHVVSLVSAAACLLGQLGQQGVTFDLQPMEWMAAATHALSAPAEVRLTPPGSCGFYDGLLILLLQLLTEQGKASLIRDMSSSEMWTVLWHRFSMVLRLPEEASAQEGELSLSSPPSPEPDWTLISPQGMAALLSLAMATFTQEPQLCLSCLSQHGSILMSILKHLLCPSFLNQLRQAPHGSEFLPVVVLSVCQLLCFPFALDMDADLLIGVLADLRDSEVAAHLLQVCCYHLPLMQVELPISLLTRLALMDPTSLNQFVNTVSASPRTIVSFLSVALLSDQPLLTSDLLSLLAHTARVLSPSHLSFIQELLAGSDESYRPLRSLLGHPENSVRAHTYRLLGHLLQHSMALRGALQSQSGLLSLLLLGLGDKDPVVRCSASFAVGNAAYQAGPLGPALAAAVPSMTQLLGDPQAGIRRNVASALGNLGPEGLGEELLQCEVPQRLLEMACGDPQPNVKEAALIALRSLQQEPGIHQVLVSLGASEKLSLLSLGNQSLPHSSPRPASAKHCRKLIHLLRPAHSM
Chain of Inhibitor of nuclear factor kappa-B kinase subunit beta (Homo sapiens) (O14920 whole entry): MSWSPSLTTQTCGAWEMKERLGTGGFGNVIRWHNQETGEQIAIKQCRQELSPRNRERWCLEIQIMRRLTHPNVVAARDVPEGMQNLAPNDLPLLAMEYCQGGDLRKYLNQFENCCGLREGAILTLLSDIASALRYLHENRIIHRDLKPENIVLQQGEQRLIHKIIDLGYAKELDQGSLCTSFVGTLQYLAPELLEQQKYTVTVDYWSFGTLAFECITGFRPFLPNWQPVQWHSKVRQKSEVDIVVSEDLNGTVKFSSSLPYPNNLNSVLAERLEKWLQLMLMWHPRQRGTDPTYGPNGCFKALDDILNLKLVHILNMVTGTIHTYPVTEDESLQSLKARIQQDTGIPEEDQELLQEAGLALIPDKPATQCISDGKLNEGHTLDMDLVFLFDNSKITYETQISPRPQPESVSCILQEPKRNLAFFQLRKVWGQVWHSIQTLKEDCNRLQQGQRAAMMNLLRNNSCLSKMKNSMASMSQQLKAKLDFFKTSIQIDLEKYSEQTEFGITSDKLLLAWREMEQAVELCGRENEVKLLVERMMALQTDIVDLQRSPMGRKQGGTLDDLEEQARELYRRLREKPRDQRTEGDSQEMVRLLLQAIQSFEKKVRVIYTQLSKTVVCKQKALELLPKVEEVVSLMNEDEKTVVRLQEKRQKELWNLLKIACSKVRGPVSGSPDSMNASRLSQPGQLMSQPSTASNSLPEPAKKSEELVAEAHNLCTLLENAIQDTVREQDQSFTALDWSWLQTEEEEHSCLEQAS
Chain of Receptor-type tyrosine-protein kinase FLT3 (Homo sapiens), P36888 [UNDEFINED MUTATION] (P36888 whole entry, looked up, stated change not applied, canonical isoform): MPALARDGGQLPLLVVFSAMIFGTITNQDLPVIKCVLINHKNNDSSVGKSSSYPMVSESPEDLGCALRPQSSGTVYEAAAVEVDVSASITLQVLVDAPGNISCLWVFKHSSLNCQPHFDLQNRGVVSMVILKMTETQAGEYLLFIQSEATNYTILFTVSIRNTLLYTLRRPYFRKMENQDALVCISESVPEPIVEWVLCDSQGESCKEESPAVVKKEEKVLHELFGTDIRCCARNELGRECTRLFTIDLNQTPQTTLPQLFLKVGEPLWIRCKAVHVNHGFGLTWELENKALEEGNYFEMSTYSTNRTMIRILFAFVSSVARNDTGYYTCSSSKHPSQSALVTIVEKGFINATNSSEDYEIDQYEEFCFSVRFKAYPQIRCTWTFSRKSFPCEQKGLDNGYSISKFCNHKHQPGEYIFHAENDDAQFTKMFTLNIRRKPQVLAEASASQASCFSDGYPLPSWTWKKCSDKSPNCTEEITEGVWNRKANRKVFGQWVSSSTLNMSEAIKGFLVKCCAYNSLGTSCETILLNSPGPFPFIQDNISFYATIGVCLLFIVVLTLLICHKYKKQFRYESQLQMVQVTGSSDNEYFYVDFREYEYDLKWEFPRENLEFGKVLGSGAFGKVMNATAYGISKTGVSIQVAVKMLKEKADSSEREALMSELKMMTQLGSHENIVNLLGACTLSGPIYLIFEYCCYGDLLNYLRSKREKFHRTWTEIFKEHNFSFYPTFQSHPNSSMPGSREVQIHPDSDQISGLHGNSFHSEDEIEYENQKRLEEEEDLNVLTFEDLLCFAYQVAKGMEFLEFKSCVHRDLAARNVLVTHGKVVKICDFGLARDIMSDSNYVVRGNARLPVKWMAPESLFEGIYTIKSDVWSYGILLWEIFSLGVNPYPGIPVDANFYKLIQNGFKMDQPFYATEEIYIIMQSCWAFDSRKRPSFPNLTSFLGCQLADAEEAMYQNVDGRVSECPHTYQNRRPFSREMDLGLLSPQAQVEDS
Chain of Dual specificity mitogen-activated protein kinase kinase 5 (Homo sapiens) (Q13163 whole entry): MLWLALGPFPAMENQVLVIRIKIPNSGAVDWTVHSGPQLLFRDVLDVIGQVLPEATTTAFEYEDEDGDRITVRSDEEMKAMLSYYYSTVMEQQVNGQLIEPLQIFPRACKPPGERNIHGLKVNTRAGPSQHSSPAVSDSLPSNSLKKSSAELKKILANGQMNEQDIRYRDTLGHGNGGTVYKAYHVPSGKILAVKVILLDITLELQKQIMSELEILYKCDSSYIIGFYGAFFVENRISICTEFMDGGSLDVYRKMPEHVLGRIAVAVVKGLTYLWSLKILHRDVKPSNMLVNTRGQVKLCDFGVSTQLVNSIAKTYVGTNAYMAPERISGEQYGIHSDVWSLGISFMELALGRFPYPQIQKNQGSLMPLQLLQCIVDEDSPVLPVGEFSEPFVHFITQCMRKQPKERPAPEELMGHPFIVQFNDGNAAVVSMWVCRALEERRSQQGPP

Cc1cc(-n2nc(Cc3cc(F)cc(C(F)(F)F)c3)nc2C)ccc1C(N)=O [TP-024]
inactive: residual activity [1] 100% | residual activity [2] 92% | residual activity [3] 100% | residual activity [4] 100% | inhibition [5] 4.48% | residual activity [6] 79% | residual activity [7] 81% | residual activity [8] 94% | residual activity [9] 100% | residual activity [10] 95% | residual activity [11] 83% | residual activity [12] 100% | residual activity [13] 100% | residual activity [14] 100% | residual activity [15] 100% | residual activity [16] 100% | residual activity [17] 83% | inhibition [18] 3.15% | residual activity [19] 100% | residual activity [20] 100% | residual activity [21] 100% | residual activity [22] 98% | residual activity [23] 100% | residual activity [24] 100% | residual activity [25] 81% | residual activity [26] 100% | residual activity [27] 100% | residual activity [28] 92% | residual activity [29] 94% | residual activity [30] 84% | residual activity [31] 83% | residual activity [32] 93% | residual activity [33] 100% | inhibition [34] 5.45% | residual activity [35] 97% | residual activity [36] 100% | residual activity [37] 100% | residual activity [38] 100% | residual activity [39] 100% | residual activity [40] 100% | residual activity [41] 95% | residual activity [42] 90% | residual activity [43] 100% | residual activity [44] 100% | residual activity [45] 100%

Cc1nc(Cc2cccc(C(F)(F)F)c2)sc1-c1ccc(C(N)=O)nc1 [TP-024n]
inactive: residual activity [1] 89% | residual activity [2] 80% | residual activity [3] 100% | residual activity [4] 100% | inhibition [5] -1.63% | residual activity [6] 78% | residual activity [7] 75% | residual activity [8] 69% | residual activity [9] 100% | residual activity [11] 69% | residual activity [12] 100% | residual activity [13] 90% | residual activity [14] 95% | residual activity [15] 100% | residual activity [16] 100% | residual activity [17] 75% | inhibition [18] -5.68% | residual activity [19] 100% | residual activity [20] 83% | residual activity [21] 100% | residual activity [22] 100% | residual activity [23] 85% | residual activity [24] 100% | residual activity [25] 100% | residual activity [26] 100% | residual activity [27] 100% | residual activity [28] 72% | residual activity [29] 88% | residual activity [30] 100% | residual activity [31] 81% | residual activity [32] 75% | residual activity [33] 100% | inhibition [34] 4.72% | residual activity [35] 64% | residual activity [36] 100% | residual activity [37] 100% | residual activity [38] 100% | residual activity [39] 88% | residual activity [40] 100% | residual activity [41] 83% | residual activity [42] 54% | residual activity [43] 91% | residual activity [44] 87% | residual activity [45] 100%
active: residual activity [10] 15%
